Assay results from US20100190848A1, “Cysteine-protease inhibitors” (UNIVERSITAT JAUME I, priority 2007, published 2010).
pIC50: −log10 of the molar value.

Assays:
cathepsin B (Tb CatB) = cathepsin B (Tb CatB) (Trypanosoma brucei, UniProt Q6R7Z5); test: Enzymatic inhibition of recombinant Tb CatB, fluorogenic Z-Phe-Arg-AMC substrate; format: biochemical; settings: for % inhibition (DMSO) TbCat B: concentration not given; for activity against cathepsin B (in words): summary statement, said to indicate selectivity
Method: (§1) Inhibition of cysteine-proteases cruzain, rhodesain, cathepsin B (Tb CatB) and falcipain (FP2) was assessed by quantification of the resulting fluorescence emission of the proteolytic breakdown of synthetic compound Z-Phe-Arg-AMC (Bachem). Inhibitors Ia or Ib were used at concentrations ranging form 10 nM to 10.000 nM (from 500 nM to 10000 nM for Tb CatB); thus, serial dilutions in DMSO were prepared with the minimal concentration of inhibitor Ia or Ib used for calculations and at least 10 times higher than that of the enzyme. These experiments were performed by distributing inhibitor Ia or Ib in 96 wells, fluorescence was recorded on a Flex Station fluorimeter (Molecular Devices), 355 nm excitation and 460 nm emission at 25° C., distributing 100 μl of substrate using a multichannel pipette at a similar volume of the inhibitor enzyme preincubated at 25° C. for 5 minutes. In each series of experiments, the enzyme with DMSO and the enzyme in the presence of the known irreversible inhibitor K11777 (N methyl piperazine-Phe-HPhe-(CH═CHSO2 Ph)), Arris Pharmaceuticals Inc., South San Francisco, Calif.) were used as controls.
(§2) Enzyme inhibition data were similarly determined: recombinant cruzain at 4 nM with 5 μM of Z-Phe-Arg-AMC (Km=1 μM) in buffer A (100 mM of sodium acetate, pH 5.5 with 5 mM of DTT and 0.001% Triton-X 100 (Sigma)); recombinant rhodesain at 4 nM of enzyme and 5 μM Z-Phe-Arg-AMC (Km=1 μM) in buffer A; recombinant Tb CatB at 40 nM of enzyme and 5 μM of Z-Phe-Arg-AMC (Km=60 μM) in buffer A and recombinant FP2 at 4 nM with 5 μM of Z-Phe-Arg-AMC (Km=1 μM) in buffer A. IC50 values were determined by direct reading of the semi-log plot of reaction speed versus inhibitor concentration.

rhodesain = rhodesain (Trypanosoma brucei rhodesiense, UniProt Q95PM0); test: Enzymatic inhibition of recombinant rhodesain, fluorogenic Z-Phe-Arg-AMC substrate; format: biochemical, T. Brucei; settings: for % inhibition (DMSO) Rhodesain: concentration not given; for activity against rhodesain (in words): summary statement
Method: as §1, §2

[1] = test system: Trypanosoma brucei brucei (Tbb); test: Inhibition test on Trypanosoma brucei brucei by ATP-bioluminescence; format: cell-based; settings: concentration not given
Method: Inhibition tests on Trypanosoma brucei brucei were performed by ATP-bioluminescence (Z. B. Mackey et al, Chem. Biol. Drug Des. 2006, 67, pp. 355-363).

falcipain (FP2) = falcipain (FP2) (Plasmodium falciparum, UniProt Q8I6U4); test: Enzymatic inhibition of recombinant falcipain (FP2), fluorogenic Z-Phe-Arg-AMC substrate; format: biochemical
Method: as §1, with “controls. […]” for “controls.”

cruzain = cruzain (Trypanosoma cruzi, UniProt P25779); test: biochemical; format: biochemical; settings: for % inhibition (DMSO) Cruzain: concentration not given; for activity against cruzain (in words): summary statement
Chain of cruzain (P25779 123-467): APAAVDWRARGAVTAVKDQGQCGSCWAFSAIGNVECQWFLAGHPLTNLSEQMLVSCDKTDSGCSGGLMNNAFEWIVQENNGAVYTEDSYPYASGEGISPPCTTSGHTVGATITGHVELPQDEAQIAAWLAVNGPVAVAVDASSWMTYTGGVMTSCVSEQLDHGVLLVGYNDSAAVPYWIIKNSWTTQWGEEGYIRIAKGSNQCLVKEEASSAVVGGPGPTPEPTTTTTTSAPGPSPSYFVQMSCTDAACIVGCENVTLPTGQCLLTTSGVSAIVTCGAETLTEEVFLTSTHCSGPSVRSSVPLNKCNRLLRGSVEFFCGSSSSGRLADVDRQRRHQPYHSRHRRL

Chain of cathepsin B (Tb CatB) (Q6R7Z5 entry or part of it): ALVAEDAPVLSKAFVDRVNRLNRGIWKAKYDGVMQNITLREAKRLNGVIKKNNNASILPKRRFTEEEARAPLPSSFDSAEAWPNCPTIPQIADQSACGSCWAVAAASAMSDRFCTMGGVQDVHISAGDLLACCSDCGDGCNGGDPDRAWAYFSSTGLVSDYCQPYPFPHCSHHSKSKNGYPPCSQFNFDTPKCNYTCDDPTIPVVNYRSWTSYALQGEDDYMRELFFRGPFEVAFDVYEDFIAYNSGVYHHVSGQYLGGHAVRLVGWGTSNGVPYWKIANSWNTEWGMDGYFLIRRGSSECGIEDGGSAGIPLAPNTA
Chain of rhodesain (Q95PM0 entry or part of it): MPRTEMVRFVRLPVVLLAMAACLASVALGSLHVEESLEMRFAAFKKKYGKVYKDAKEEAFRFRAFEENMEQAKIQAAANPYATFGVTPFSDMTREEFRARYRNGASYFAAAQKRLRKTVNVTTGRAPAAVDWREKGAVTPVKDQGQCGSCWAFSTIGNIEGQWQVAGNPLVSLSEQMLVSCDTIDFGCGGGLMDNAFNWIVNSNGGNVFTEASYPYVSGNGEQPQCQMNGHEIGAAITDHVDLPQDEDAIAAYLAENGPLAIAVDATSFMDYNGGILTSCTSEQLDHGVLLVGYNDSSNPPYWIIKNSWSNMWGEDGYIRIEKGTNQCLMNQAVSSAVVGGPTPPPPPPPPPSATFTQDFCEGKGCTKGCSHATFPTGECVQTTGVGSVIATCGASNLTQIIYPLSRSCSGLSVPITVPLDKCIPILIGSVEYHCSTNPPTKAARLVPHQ
Chain of falcipain (FP2) (Q8I6U4 244-484): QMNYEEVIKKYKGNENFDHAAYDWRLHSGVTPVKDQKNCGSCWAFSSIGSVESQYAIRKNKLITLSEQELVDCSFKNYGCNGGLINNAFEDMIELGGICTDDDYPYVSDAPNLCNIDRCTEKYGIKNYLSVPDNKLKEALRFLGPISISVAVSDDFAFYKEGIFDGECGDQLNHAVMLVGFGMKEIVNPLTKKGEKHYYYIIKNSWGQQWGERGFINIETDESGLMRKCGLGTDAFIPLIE

SMILES: CCOC(=O)[C@@H]1O[C@H]1C(=O)[C@H](CCc1ccccc1)NC(=O)[C@H](Cc1ccccc1)NC(=O)OCc1ccccc1 [Compound Ib.1, Ethyl (2R,3R)-3-[(2S)-2-((2S)-2-benzyloxycarbonylamino-3-phenylpropionylamino)-4-phenylbutyryl]oxirane-2-carboxylate]
- pIC50 (cathepsin B (Tb CatB)): 6.40
- % inhibition (DMSO) TbCat B (cathepsin B (Tb CatB)): 47%
- activity against cathepsin B (in words) (cathepsin B (Tb CatB)): not against cathepsin B
- pIC50 (rhodesain): 7.52
- % inhibition (DMSO) Rhodesain (rhodesain): 80%
- activity against rhodesain (in words) (rhodesain): very active
- % inhibition (DMSO) Tbb [1]: −2%
- pIC50 (falcipain (FP2)): 7.36
- pIC50 (cruzain): 7.30
- % inhibition (DMSO) Cruzain (cruzain): 55%
- activity against cruzain (in words) (cruzain): very active

SMILES: CCOC(=O)[C@H]1O[C@@H]1C(=O)[C@H](CCc1ccccc1)NC(=O)[C@H](Cc1ccccc1)NC(=O)OCc1ccccc1 [Compound Ia.1, Ethyl (2S,3S)-3-[(2S)-2-((2S)-2-benzyloxycarbonylamino-3-phenylpropionylamino)-4-phenylbutyryl]oxirane-2-carboxylate]
- pIC50 (cathepsin B (Tb CatB)): < 6.00
- % inhibition (DMSO) TbCat B (cathepsin B (Tb CatB)): 51%
- activity against cathepsin B (in words) (cathepsin B (Tb CatB)): not against cathepsin B
- pIC50 (rhodesain): 8.46
- % inhibition (DMSO) Rhodesain (rhodesain): 98%
- activity against rhodesain (in words) (rhodesain): very active
- % inhibition (DMSO) Tbb [1]: 42%
- pIC50 (falcipain (FP2)): 7.15
- pIC50 (cruzain): 7.70
- % inhibition (DMSO) Cruzain (cruzain): 93%
- activity against cruzain (in words) (cruzain): very active
